According to patent publication US20210009564A1, “CALPAIN MODULATORS AND THERAPEUTIC USES THEREOF” (BLADE THERAPERTICS, INC., priority 2018, published 2021):

Columns and labels:
Human Calpain 1/NS1 = target: T1, Human Calpain 1/NS1 (Homo sapiens, UniProt P07384); assay: Calpain inhibition, continuous fluorescence (FRET substrate) assay, calpain 1; type: biochemical; conditions: SensoLyte 520 FRET substrate, 25C
T1 sequence (P07384 1-714): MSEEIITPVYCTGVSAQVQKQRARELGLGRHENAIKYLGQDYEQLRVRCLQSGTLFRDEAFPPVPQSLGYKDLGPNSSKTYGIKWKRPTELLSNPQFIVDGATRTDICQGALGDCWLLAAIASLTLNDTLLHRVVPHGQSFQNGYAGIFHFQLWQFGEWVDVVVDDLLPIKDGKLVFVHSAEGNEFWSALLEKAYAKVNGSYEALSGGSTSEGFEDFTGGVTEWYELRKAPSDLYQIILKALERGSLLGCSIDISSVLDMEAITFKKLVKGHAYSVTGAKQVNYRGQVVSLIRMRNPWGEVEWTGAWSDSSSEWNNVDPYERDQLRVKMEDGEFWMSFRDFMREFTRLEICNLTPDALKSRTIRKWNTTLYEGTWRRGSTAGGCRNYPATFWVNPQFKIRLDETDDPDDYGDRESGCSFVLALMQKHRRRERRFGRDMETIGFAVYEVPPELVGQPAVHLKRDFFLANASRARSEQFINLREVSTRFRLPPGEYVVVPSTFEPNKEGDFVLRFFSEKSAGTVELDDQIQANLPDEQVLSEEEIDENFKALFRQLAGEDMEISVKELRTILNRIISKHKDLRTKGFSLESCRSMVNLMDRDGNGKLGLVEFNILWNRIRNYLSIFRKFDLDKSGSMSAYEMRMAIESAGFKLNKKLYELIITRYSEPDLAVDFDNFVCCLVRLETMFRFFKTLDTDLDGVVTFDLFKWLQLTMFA
T1 sequence (P04632 1-268 partner): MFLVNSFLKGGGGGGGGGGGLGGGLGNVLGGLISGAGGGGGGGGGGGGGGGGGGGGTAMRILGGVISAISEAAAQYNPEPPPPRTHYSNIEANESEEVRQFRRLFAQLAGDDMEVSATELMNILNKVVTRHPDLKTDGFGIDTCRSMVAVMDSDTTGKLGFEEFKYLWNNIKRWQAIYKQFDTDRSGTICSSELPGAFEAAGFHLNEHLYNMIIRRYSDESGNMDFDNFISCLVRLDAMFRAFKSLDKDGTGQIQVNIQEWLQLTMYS
Method in brief: (§1)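 Calpains preincubated with serially diluted inhibitors at 25 °C in 50 mM Tris pH 7.5, 100 mM NaCl, 1 mM DTT; CaCl2 plus 5-FAM/QXL 520 FRET substrate started the reaction. Fluorescence (490/520 nm) read 10 min; rates from 1-5 min slopes, IC50 from 4-parameter logistic fit.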

Human Calpain 2/NS1 = target: T2, Human Calpain 2/NS1 (Homo sapiens, UniProt P17655); assay: Calpain inhibition, continuous fluorescence (FRET substrate) assay, calpain 2; type: biochemical; conditions: SensoLyte 520 FRET substrate, 25C
T2 sequence (P17655 1-700): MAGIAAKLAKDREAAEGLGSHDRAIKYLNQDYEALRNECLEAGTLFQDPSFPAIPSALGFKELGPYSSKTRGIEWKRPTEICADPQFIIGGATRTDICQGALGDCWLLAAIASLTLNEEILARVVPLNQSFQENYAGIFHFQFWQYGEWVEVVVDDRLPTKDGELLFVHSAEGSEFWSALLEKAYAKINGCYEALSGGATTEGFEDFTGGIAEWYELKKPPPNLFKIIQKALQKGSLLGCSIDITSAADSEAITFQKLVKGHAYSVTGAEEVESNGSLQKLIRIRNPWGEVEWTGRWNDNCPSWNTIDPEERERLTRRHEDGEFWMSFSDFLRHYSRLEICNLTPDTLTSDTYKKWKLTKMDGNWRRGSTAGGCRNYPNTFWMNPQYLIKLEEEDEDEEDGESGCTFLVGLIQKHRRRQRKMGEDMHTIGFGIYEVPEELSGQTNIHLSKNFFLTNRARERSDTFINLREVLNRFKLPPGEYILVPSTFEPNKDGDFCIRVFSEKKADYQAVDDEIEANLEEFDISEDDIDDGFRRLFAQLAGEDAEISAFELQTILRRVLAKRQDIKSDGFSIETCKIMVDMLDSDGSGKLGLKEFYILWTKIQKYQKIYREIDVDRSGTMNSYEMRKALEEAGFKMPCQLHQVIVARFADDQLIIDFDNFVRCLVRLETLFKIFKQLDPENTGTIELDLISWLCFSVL
T2 sequence (P04632 1-268 partner): T1 sequence (P04632 1-268 partner)
Method in brief: as §1

Human Calpain 9/NS1 = target: T3, Human Calpain 9/NS1 (Homo sapiens, UniProt O14815); assay: Calpain inhibition, continuous fluorescence (FRET substrate) assay, calpain 9; type: biochemical; conditions: SensoLyte 520 FRET substrate, 25C
T3 sequence (O14815 1-690): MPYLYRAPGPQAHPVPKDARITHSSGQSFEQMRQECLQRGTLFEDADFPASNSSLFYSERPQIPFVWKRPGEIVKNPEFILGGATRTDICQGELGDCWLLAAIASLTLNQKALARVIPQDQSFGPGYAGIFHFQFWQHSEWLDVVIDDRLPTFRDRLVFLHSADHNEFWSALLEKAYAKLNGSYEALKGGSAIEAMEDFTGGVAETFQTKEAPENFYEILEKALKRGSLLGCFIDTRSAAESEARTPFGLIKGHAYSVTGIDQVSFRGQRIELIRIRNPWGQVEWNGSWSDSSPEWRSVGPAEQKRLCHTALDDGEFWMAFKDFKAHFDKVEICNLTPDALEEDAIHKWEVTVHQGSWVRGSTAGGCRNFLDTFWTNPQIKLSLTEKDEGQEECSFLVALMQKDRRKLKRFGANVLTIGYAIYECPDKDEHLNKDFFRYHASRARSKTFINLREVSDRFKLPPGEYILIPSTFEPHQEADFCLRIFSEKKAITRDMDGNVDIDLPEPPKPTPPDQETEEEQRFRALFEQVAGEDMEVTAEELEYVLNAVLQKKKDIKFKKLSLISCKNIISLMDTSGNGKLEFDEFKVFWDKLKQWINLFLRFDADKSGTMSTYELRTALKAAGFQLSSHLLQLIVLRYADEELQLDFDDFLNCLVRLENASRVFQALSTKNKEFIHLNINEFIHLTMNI
T3 sequence (P04632 1-268 partner): T1 sequence (P04632 1-268 partner)
Method in brief: as §1

[1] = tested on: Calpain activity in SH-SY5Y cells; assay: SH-SY5Y spectrin breakdown product (SBDP-150) western blot assay; type: cell-based; conditions: Homo sapiens; SH-SY5Y cells, 25 uM A23187, SBDP-150 western blot; read-out: SH-SY5Y Spectrin IC50
[2] = tested on: Calpain activity in SH-SY5Y cells; assay: SH-SY5Y Suc-LLVY-AMC fluorescence assay; type: cell-based; conditions: Homo sapiens; SH-SY5Y cells, 100 uM Suc-LLVY-AMC; read-out: SH-SY5Y + AMC IC50

Row | Compound | IC50 (Human Calpain 1/NS1) | IC50 (Human Calpain 2/NS1) | IC50 (Human Calpain 9/NS1) | IC50 [1] | IC50 [2]
1 | NC(=O)C(=O)C(Cc1ccccc1)NC(=O)c1nsnc1-c1ccoc1Cl (stereo not shown) [Compound 79, N-(4-AMINO-3,4-DIOXO-1-PHENYLBUTAN-2-YL)-4-(2-CHLOROFURAN-3-YL)-1,2,5-THIADIAZOLE-3-CARBOXAMIDE] | < 3 µM | < 3 µM | < 3 µM | < 10 µM | < 10 µM
2 | Cn1cc(C(=O)NC(Cc2ccccc2)C(=O)C(N)=O)c(-c2nccc3ccccc23)n1 (stereo not shown) [Compound 10, N-(4-AMINO-3,4-DIOXO-1-PHENYLBUTAN-2-YL)-3-(ISOQUINOLIN-1-YL)-1-METHYL-1H-PYRAZOLE-4-CARBOXAMIDE] | 3 to 10 µM | < 3 µM | < 3 µM | > 25 µM | > 25 µM
3 | Cn1cc(C(=O)NC(Cc2ccccc2)C(=O)C(N)=O)c(-n2cnc3ccc(F)cc32)n1 (stereo not shown) [Compound 47, N-(4-AMINO-3,4-DIOXO-1-PHENYLBUTAN-2-YL)-3-(6-FLUORO-1H-BENZO[D]IMIDAZOL-1-YL)-1-METHYL-1H-PYRAZOLE-4-CARBOXAMIDE] | < 3 µM | < 3 µM | < 3 µM | 10 to 25 µM | > 25 µM

The remaining lines, values ahead:

Row | IC50 (Human Calpain 1/NS1) | IC50 (Human Calpain 2/NS1) | IC50 (Human Calpain 9/NS1) | IC50 [1] | IC50 [2] | Compound
4 | < 3 µM | < 3 µM | < 3 µM | 10 to 25 µM | 10 to 25 µM | CC(C)n1ncc2c(-c3nn(C)cc3C(=O)NC(Cc3ccccc3)C(=O)C(N)=O)cccc21 (stereo not shown) [Compound 100, N-(4-AMINO-3,4-DIOXO-1-PHENYLBUTAN-2-YL)-3-(1-ISOPROPYL-1H-INDAZOL-4-YL)-1-METHYL-1H-PYRAZOLE-4-CARBOXAMIDE]
5 | < 3 µM | < 3 µM | < 3 µM | 10 to 25 µM | < 10 µM | Cc1nc(-c2ccoc2Cl)c(C(=O)NC(Cc2ccccc2)C(=O)C(N)=O)o1 (stereo not shown) [Compound 90, N-(4-AMINO-3,4-DIOXO-1-PHENYLBUTAN-2-YL)-4-(2-CHLOROFURAN-3-YL)-2-METHYLOXAZOLE-5-CARBOXAMIDE]
